In patent publication US12534501B2, “Targeting deregulated Wnt signaling in cancer using stabilized alpha-helices of BCL-9” (Dana-Farber Cancer Institute, Inc., priority 2011, dated 2026):
Numbered stars: 1 amine (or outer) side, 2 acyl side, 3 side chain; on linkers, the order of the positions; unused ones are H or OH. Bridge positions count the residues as written; N and C are the ends. Square brackets hold non-standard residues; d marks the D form. Peptide text beside a SMILES is read from it. ξ: configuration not given here. ξαMeNle(6-ylidene) = CC(CCCC=[*:3])(N[*:1])C(=O)[*:2]; Nle = CCCC[C@H](N)C(=O)O

Tests used:
Assay type in all cases: cell-based
Colo320 cells = test: Cellular invasion assay, Matrigel Boyden chambers; conditions: 5 μM
Procedure: Angiogenesis was evaluated as previously described (Mani, M. et al. Cancer Res 69, 7577-86 (2009)) using an in vitro angiogenesis assay kit (Millipore). For capillary tube formation analysis, HUVEC were cultured on polymerized matrix gel and exposed to supernatant media collected from Colo320 or MM1S cells treated with vehicle (0.5% DMSO), SAH-BCL9B peptides (5 μM) for 24 h. The number of capillary tubes formed after 5 h treatment at 37° C. was determined by counting 5 randomly selected fields at 40× magnification, according to manufacture's instructions. HUVEC cultured in VEGF media and VEGF-free media were used as positive and negative controls, respectively. Cellular invasion assays were performed using Matrigel Boyden chambers (BD Biosciences) as described (Mani, M. et al. Cancer Res 69, 7577-86 (2009)). The reported data represent the average of three independent experiments performed in triplicate. See results in FIG. 3H-FIG. 3I.

β-catenin = target: T1, β-catenin (Homo sapiens, UniProt P35222); test: Anti-FITC / anti-β-catenin co-immunoprecipitation from lysates of peptide-treated cells; conditions: FITC and β-catenin immunoprecipitation, in situ
T1 construct: endogenous in cells; host or cells: Colo320
T1 sequence (P35222 1-781): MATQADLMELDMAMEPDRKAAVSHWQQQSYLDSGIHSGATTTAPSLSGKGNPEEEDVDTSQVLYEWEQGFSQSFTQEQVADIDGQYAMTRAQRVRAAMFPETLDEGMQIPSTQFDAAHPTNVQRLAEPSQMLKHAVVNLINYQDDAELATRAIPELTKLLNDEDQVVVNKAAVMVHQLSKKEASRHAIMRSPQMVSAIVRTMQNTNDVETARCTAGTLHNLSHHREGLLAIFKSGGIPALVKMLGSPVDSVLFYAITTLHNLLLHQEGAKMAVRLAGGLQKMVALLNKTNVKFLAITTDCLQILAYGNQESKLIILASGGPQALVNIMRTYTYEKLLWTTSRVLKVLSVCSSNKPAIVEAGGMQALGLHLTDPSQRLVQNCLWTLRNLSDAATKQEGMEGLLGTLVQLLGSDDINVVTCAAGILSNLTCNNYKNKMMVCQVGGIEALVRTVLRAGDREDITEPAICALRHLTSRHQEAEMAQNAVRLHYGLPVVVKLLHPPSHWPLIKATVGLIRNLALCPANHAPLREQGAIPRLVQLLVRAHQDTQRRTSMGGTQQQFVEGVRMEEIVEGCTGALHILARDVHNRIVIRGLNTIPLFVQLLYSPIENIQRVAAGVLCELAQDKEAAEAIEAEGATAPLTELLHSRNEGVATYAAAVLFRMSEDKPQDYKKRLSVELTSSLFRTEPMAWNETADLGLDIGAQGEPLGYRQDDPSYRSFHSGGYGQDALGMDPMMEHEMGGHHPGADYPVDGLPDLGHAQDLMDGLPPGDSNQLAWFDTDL
Excerpt: (§1) Western blotting, performed as described (Sukhdeo, K. et al. Proc Natl Acad Sci USA 104, 7516-21 (2007)), employed the following primary antibodies: BCL9 (6109) (Mani, M. et al. Cancer Res 69, 7577-86 (2009)), BCL9 (ab37305, Abcam), B9L (AF4967, R&D Systems), β-catenin (CAT5-H10, Zymed), FITC (ab19224, Abcam), Actin-HRP (C-11, Santa Cruz), Caspase3 (#9662, Cell Signaling), IκBα (#9242, Cell signaling), PARP (#9542, Cell Signaling), E-cadherin (#3195, Cell Signaling), and Lamin B (sc-6217, Santa Cruz). Horseradish peroxidase conjugated secondary antibodies were purchased from Santa Cruz and SouthernBiotech. Co-immunoprecipitation was performed as described (Walensky, L. D. et al. Science 305, 1466-70 (2004)). Briefly, cells were lysed in 50 mM Tris, 150 mM NaCl, and 1% CHAPS buffer containing protease and phosphatase inhibitors. Lysates were precleared with Protein A/G PLUS-agarose beads (Santa Cruz Biotechnologies) for 3 hours followed by overnight incubation at 4° C. with the respective antibodies. Agarose A/G beads were then added for 4 h, pelleted, and washed as described (Walensky, L. D. et al. Science 305, 1466-70 (2004)). See results in FIG. 1D, FIG. 1H, FIG. 2A, FIG. 8.

[1] = target: T2, β-catenin-BCL9/B9L complexes (Homo sapiens, UniProt P35222); test: Anti-BCL9 and B9L co-immunoprecipitation (disruption of native complexes); conditions: cellular treatment
T2 construct: SAH-BCL9B disrupts native β-catenin-BCL9/B9L complexes; endogenous in cells; Colo320 or MM1S by context
T2 sequence (P35222 2-781): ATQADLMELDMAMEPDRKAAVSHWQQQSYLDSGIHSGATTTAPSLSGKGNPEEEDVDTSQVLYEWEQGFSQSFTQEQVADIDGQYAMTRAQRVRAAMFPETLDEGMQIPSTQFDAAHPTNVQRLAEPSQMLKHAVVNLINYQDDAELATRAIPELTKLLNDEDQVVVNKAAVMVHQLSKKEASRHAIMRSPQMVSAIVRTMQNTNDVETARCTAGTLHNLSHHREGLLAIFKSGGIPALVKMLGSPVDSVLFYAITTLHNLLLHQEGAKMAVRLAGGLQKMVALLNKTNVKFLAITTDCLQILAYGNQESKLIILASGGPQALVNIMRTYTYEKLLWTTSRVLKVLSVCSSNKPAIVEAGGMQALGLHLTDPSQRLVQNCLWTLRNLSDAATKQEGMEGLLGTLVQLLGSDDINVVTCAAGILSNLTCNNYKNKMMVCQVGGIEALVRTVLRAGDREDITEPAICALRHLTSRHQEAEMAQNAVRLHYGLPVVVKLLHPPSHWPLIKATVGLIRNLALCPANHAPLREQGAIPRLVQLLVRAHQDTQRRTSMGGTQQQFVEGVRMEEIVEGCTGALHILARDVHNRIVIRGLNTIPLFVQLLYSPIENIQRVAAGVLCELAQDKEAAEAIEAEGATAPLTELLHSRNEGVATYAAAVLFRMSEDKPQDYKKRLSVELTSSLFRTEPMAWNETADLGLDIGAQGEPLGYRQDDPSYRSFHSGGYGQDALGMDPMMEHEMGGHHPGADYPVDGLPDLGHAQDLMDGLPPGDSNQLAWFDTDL
Excerpt: as §1

| Compound | migration through Matrigel Boyden chambers (Colo320 cells) | β-catenin interaction by co-immunoprecipitation (β-catenin) | disruption of the association of β-catenin with BCL9 and B9L [1] |
| --- | --- | --- | --- |
| CCCC[C@H](NC(=O)[C@H](CCCNC(=N)N)NC(=O)[C@H](CCC(N)=O)NC(=O)[C@@H](NC(=O)C1(C)CCCC=CCCCC(C)(NC(=O)[C@H](CC(C)C)NC(=O)[C@H](CO)NC(=O)[C@H](CCCNC(=N)N)NC(=O)[C@H](CCC(=O)O)NC(=O)[C@H](CCCNC(=N)N)NC(=O)[C@H](Cc2c[nH]cn2)NC(=O)[C@H](CCC(=O)O)NC(=O)[C@H](CC(C)C)NC(=O)[C@H](CCC(N)=O)NC(=O)[C@H](CCC(=O)O)NC(=O)[C@H](CCC(N)=O)NC(=O)[C@H](CO)NC(=O)[C@H](CC(C)C)NC(C)=O)C(=O)N[C@@H]([C@@H](C)O)C(=O)N[C@@H](CC(C)C)C(=O)N[C@@H](CCCNC(=N)N)C(=O)N1)[C@@H](C)CC)C(=O)N[C@@H](CC(C)C)C(=O)N[C@@H](Cc1ccccc1)C(N)=O (stereo partly drawn) [SAH-BCL9B] (Ac-LSQEQLEHRERSL[ξαMeNle(6-ylidene)]TLR[ξαMeNle(6-ylidene)]IQR[Nle]LF-NH2; staple 14-18) | blocked the migration | most effective β-catenin interactor in situ | dose-responsively disrupted |
| SAH-BCL9B(R359E): SEQ ID NO: 7: LSQEQLEHEERSLXTLRXIQRBLF; reverse polarity point mutant, negative control of SAH-BCL9B | no effect | impaired β-catenin interaction | no effect |
